Data taken from patent publication US8530474B2, “Substituted 6-(1-piperazinyl)-pyridazines as 5-HT6 receptor antagonists” (Janssen Pharmaceutica NV, priority 2008, dated 2013).
Where a name gives a salt, the structure may show the parent alone.

How the values were obtained:
human H3 receptor [1] = biological target: T1, human H3 receptor (Homo sapiens, UniProt Q9Y5N1); assay: In vitro binding assay for human H3 receptor (125I-iodoproxyfan, SK-N-MC cell membranes); conditions: iodoproxifan 1 nM, Ki converted from IC50
T1 construct: expressed in transfected cells
Description: In vitro Binding Assay for Human H3 Receptor
Briefly, cell pellets from SK-N-MC cells expressing the human H3 receptor were homogenized in 50 mM Tris-HCl/5 mM EDTA and recentrifuged at 30000 g for 30 min. Pellets were rehomogenized in 50 mM Tris/5 mM EDTA (pH 7.4). Membranes were incubated for 1 h at 25° C. with ^125I-iodoproxyfan diluted with cold iodoproxifan in 50 mM Tris-HCl/5 mM EDTA. The final total iodoproxifan concentration in the reactions is 1 nM. The cold iodoproxifan is included at 0.975 nM and the ^125I-iodoproxyfan is included at 0.025 nM final concentration. The reactions were terminated by filtration thru GF/B plates (pretreated with 0.3% polyethylenimine) on the cell harvester. The plates were washed 5 times with buffer. Nonspecific binding was defined in the presence of 100 μM histamine Inhibitory concentration (responsible for 50% inhibition of maximal effect, IC50) values were determined by a single site curve-fitting program (GraphPad, San Diego, Calif.) and converted to Ki values based on a ^125I-iodoproxyfan dissociation constant (Kd) of 1 nM.

[2] = biological target: T2, human Serotonin 5-HT6 receptor (Homo sapiens, UniProt P50406); assay: In vitro binding affinity for human 5-HT6 receptor ([3H]LSD, membranes of transfected HEK cells); conditions: human 5-HT6, [3H]Lysergic acid diethylamide 2 nM, HEK cell membranes; read-out: pIC50 Values (5-HT6) (converted)
T2 construct: expressed in transfected cells; host or cells: HEK cells
Description: D. Pharmacology In vitro Binding Affinity for Human 5-HT6 Receptor
Frozen membranes of human Serotonin 5-HT6 receptor-transfected HEK cells were thawed, briefly homogenized using an Ultra-Turrax T25 homogeniser and diluted in 50 mM Tris-HCl assay buffer containing 10 mM MgCl2, 1 mM EDTA and 10 μM Pargyline (adjusted to pH 7.4 with HCl) to an appropriate protein concentration optimized for specific and non-specific binding. Radioligand [^3H]Lysergic acid diethylamide (Perkin Elmer, specific activity ˜80 Ci/mmol) was diluted in assay buffer at a concentration of 20 nM. Radioligand (20 μl), along with 40 μl of either the 10% DMSO control, Methiothepine (10^−5M final concentration for measurement of non specific binding), or compound of interest, was then incubated with 70 μl of the prepared membrane solution and 70 μl of WGA (wheat germ agglutinin) coated PVT (polyvinyltoluidene) beads (0.25 mg/well final concentration). The final concentration of radioligand per well was 2 nM. After shaking for 24 h. at RT, plates were counted in a Topcount™ scintillation counter. Percentage specific binding and competition binding curves were calculated using S-Plus software (Insightful).

human H3 receptor [3] = biological target: T1, human H3 receptor; conditions: used to convert IC50 to Ki, read-out: dissociation constant (Kd) of radioligand; cited from earlier work

T2 sequence (P50406 whole entry): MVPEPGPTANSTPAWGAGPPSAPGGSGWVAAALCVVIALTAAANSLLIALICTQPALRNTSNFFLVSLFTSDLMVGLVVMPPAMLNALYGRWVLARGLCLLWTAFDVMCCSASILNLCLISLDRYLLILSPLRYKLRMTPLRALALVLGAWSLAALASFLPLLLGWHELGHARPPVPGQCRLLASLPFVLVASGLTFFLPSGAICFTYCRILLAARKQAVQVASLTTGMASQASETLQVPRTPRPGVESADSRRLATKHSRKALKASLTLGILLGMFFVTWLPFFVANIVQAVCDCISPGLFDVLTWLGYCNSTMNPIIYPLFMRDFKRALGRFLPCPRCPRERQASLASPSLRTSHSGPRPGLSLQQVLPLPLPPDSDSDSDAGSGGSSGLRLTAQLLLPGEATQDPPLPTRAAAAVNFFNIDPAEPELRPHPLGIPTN
T1 sequence (Q9Y5N1 whole entry): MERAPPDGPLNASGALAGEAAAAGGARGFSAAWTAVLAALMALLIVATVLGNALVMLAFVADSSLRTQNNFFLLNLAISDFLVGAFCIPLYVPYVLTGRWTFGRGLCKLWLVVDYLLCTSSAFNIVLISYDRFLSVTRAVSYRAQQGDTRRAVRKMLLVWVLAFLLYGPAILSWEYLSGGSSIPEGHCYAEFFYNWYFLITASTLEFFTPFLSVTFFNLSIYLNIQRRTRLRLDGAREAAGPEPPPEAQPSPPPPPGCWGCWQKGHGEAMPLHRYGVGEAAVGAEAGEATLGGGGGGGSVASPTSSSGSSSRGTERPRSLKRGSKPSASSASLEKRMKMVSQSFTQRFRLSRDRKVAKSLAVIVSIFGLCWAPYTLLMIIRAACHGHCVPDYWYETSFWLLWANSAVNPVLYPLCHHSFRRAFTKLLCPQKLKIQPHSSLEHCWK

| Compound | melting point [°C] | Ki (human H3 receptor [1]) [µM] | IC50 [2] [µM] | Kd (human H3 receptor [3]) [µM] |
| --- | --- | --- | --- | --- |
| Fc1ccc(Nc2cc(N3CCNCC3)nnc2C(F)(F)F)cc1 (as salt: HCl) (hydrate or solvate) [Co. No. 16, N-(4-fluorophenyl)-6-(1-piperazinyl)-3-(trifluoromethyl)-4-pyridazinamine.2.5HCl .0.5H2O] | > 300 |  |  |  |
| OC(c1ccccc1)c1cc(N2CCNCC2)nnc1C(F)(F)F (stereo not drawn) [Co. No. 5, alpha-phenyl-6-(1-piperazinyl)-3-(trifluoromethyl)-4-pyridazinemethanol] |  | > 10 | 0.631 |  |
| Fc1ccc(/C=C/c2cc(N3CCNCC3)nnc2C(F)(F)F)cc1 [Co. No. 8, 4-[(E)-2-(4-fluorophenyl)ethenyl]-6-(1-piperazinyl)-3-(trifluoromethyl)-pyridazine] | 180.6 | > 10 | 0.0631 |  |
| Fc1ccc(CNc2cc(N3CCNCC3)nnc2C(F)(F)F)cc1 [Co. No. 14, N-[(4-fluorophenyl)methyl]-6-(1-piperazinyl)-3-(trifluoromethyl)-4-pyridazinamine] |  | > 10 | 0.631 |  |
| Fc1ccc(Nc2cc(N3CCNCC3)nnc2C(F)(F)F)cc1 [Co. No. 16, N-(4-fluorophenyl)-6-(1-piperazinyl)-3-(trifluoromethyl)-4-pyridazinamine.2.5HCl .0.5H2O] |  | > 10 |  |  |
| Fc1ccc(Nc2cc(N3CCNCC3)nnc2C(F)(F)F)cc1 [Co. No. 2, N-(4-fluorophenyl)-6-(1-piperazinyl)-3-(trifluoromethyl)-4-pyridazinamine] |  |  | 0.0631 |  |
| Fc1ccc(C#Cc2cc(N3CCNCC3)nnc2C(F)(F)F)cc1 [Co. No. 9, 4-[(4-fluorophenyl)ethynyl]-6-(1-piperazinyl)-3-(trifluoromethyl)-pyridazine] | 251.6 | > 10 | 1.58 |  |
| FC(F)(F)c1nnc(N2CCNCC2)cc1Cc1ccccc1 [Co. No. 3, 4-(phenylmethyl)-6-(1-piperazinyl)-3-(trifluoromethyl)-pyridazine] | 133.8 | > 10 | 0.126 |  |
| O=C(c1ccccc1)c1cc(N2CCNCC2)nnc1C(F)(F)F [Co. No. 4, phenyl[6-(1-piperazinyl)-3-(trifluoromethyl)-4-pyridazinyl]-methanone] | 289.5 | > 10 | 0.126 |  |
| Fc1ccc(Oc2cc(N3CCNCC3)nnc2C(F)(F)F)cc1 [Co. No. 1, 4-(4-fluorophenoxy)-6-(1-piperazinyl)-3-(trifluoromethyl)-pyridazine] | 132.5 | 5 | 0.251 |  |
| FC(F)(F)c1nnc(N2CCN(Cc3ccccn3)CC2)cc1/C=C/c1ccccc1 [Co. No. 18, 4-[(E)-2-phenylethenyl]-6-[4-(2-pyridinylmethyl)-1-piperazinyl]-3-(trifluoromethyl)-pyridazine] | 121.4 | > 10 | 6.31 |  |
| O=S(=O)(c1ccccc1)c1cc(N2CCNCC2)nnc1C(F)(F)F [Co. No. 6, 4-(phenylsulfonyl)-6-(1-piperazinyl)-3-(trifluoromethyl)-pyridazine] | 180.3 | > 10 | 0.251 |  |
| Ic1ccc(COCCCc2cnc[nH]2)cc1 [^125I-iodoproxyfan] |  |  |  | 0.001 |
| OC(c1ccccc1)c1cc(N2CCNCC2)nnc1C(F)(F)F (stereo not drawn) (as salt: HCl) [Co. No. 5, alpha-phenyl-6-(1-piperazinyl)-3-(trifluoromethyl)-4-pyridazinemethanol] | 199.7 |  |  |  |
| FC(F)(F)c1nnc(N2CCN(Cc3ccncc3)CC2)cc1/C=C/c1ccccc1 (as salt: trifluoroacetate) [Co. No. 17, 4-[(E)-2-phenylethenyl]-6-[4-(4-pyridinylmethyl)-1-piperazinyl]-3-(trifluoromethyl)-pyridazine] | 163.9 |  |  |  |
| CN1CCN(c2cc(C(=O)c3ccccc3)c(C(F)(F)F)nn2)CC1 [Co. No. 13, [6-(4-methyl-1-piperazinyl)-3-(trifluoromethyl)-4-pyridazinyl]phenyl-methanone] | 136.3 | > 10 | 0.158 |  |
| CN1CCN(c2cc(/C=C/c3ccccc3)c(C(F)(F)F)nn2)CC1 [Co. No. 11, 6-(4-methyl-1-piperazinyl)-4-[(E)-2-phenylethenyl]-3-(trifluoromethyl)-pyridazine] | 135.8 | > 10 | 0.398 |  |
| Fc1ccc(/C=C\c2cc(N3CCNCC3)nnc2C(F)(F)F)cc1 [Co. No. 7, 4-[(Z)-2-(4-fluorophenyl)ethenyl]-6-(1-piperazinyl)-3-(trifluoromethyl)-pyridazine] |  | > 10 | 0.158 |  |
| Fc1ccc(COc2cc(N3CCNCC3)nnc2C(F)(F)F)cc1 [Co. No. 15, 4-[(4-fluorophenyl)methoxy]-6-(1-piperazinyl)-3-(trifluoromethyl)-pyridazine] | 142.1 | > 10 | 0.398 |  |
| FC(F)(F)c1nnc(N2CCN(Cc3ccncc3)CC2)cc1/C=C/c1ccccc1 [Co. No. 17, 4-[(E)-2-phenylethenyl]-6-[4-(4-pyridinylmethyl)-1-piperazinyl]-3-(trifluoromethyl)-pyridazine] |  | > 10 | 1.26 |  |
